In article PMC8346002 (International Journal of Molecular Sciences, 2021):
“Also recorded” adds a separate entry of the source. Like-named read-outs stand apart in the source and are kept apart here.

B1: cyclic AMP receptor protein (CRP) from Escherichia coli (natural protein, E. coli K12 MG1655)
chain: MVLGKPQTDPTLEWFLSHCHIHKYPSKSTLIHQGEKAETLYYIVKGSVAVLIKDEEGKEMILSYLNQGDFIGELGLFEEGQERSAWVRAKTACEVAEISYKKFRQLIQVNPDILMRLSAQMARRLQVTSEKVGNLAFLDVTGRIAQTLLNLAKQPDAMTHPDGMQIKITRQEIGQIVGCSRETVGRILKMLEDQNLISAHGKTIVVYGTR
notes: cAMP receptor protein (CRP) of E. coli K12 MG1655; the gene was amplified by PCR from genomic DNA and cloned into pET21a(+) with NdeI and XhoI; About 24 kDa on SDS-PAGE; it is inferred from the vector and the Ni-NTA column; also called CAP; source: E. coli BL21 (DE3), pET21a(+), purified (Ni-NTA, desalting column)

Legend:
[1] = biological target: T1, cAMP receptor protein (CRP) (Escherichia coli, UniProt P0ACJ8); assay type: binding; conditions: CRP 2 µM, 25 °C, 50 mM MOPS pH 7.5, excitation 280 nm, ΔF(area) 334-348 nm; read-out: KD for nucleotide ligands on CRP
T1 construct: inferred from pET21a(+) and Ni-NTA/imidazole purification); made in house; host or cells: E. coli BL21 (DE3), pET21a(+)
Protocol: Figure 1 Binding of ppGpp to CRP determined by fluorescence spectroscopy. (a) The fluorescence Spectra of CRP in the presence of ppGpp. Following excitation at 280 nm, the emission spectra of CRP (2 µM) were recorded at 25 °C. (b) The fluorescence change (ΔF(area)) against ppGpp concentrations. Instead of using the fluorescence change at a fixed wavelength, the area below the spectra between 334 and 348 nm was used, and the area decrease (ΔF(area)) upon addition of ppGpp was utilized to calculate the extent of fluorescence quenching.
(§1) Fluorescence intensities were measured at 25 °C using a F-4500 Fluorescence Spectrophotometer (Hitachi corporation). H-NS and CRP in 50 mM MOPS buffer, pH 7.5 were excited at 280 nm and the emission spectra were recorded from 290 to 400 nm under various ligand concentrations. The dissociation constant, KD, was calculated using the equation, ΔF/ΔFM = (([L] + [P] + KD) − (([L] + [P] + KD)^2 − 4·[L]·[P])^0.5)/2·[P], where ΔF, ΔFM, [P], and [L] represent fluorescence change, the maximal fluorescence change, total protein concentration, and total ligand concentration, respectively. The area below the spectra in the 15 nm ranges was used to calculate ΔF in this study. The corrections for the inner filter effect, introduced by the ligands, was performed using the formula, Fcor = F × 10^(P + ΔA)/2, where F and Fcor denote fluorescence intensity before and after the correction, whereas P and ΔA indicate the initial sample absorption at the excitation wavelength and the change in absorption introduced by ligands, respectively.

[2] = biological target: T2, histone-like nucleoid structuring protein (H-NS) (Escherichia coli, UniProt P0ACF8); assay: biochemical; assay type: binding
T2 construct: inferred from Ni-NTA/imidazole purification; made in house; host or cells: E. coli BL21 (DE3); over-expressing strain obtained from Dr. Hyon E. Choy, originally from Dr. Bremer's laboratory
Protocol: Figure 3 Determination of the dissociation constant KD for ppGpp on H-NS by fluorescence spectrometry. (a) The emission spectra of H-NS in the presence of ppGpp. While H-NS (10µM) was excited at 280 nm, the emission spectra in the presence of various concentrations of ppGpp were recorded at 25 °C. (b) The difference in fluorescence (ΔF(area)) between 322 and 336 nm against ppGpp concentrations.
as §1

[3] = biological target: the molecule itself; assay: SEC; size exclusion chromatography of isolated CRP, single peak; data not shown
[4] = H-NS 10 µM, 25 °C, 50 mM MOPS pH 7.5, excitation 280 nm, ΔF(area) 322-336 nm, read-out: KD for nucleotide ligands on H-NS

T2 sequence (P0ACF8 whole entry): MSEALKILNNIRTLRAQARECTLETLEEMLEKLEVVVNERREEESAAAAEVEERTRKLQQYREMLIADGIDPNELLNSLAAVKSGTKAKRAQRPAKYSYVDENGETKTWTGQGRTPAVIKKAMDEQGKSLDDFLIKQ

| Molecule | Kd [1] [µM] | Kd [2, 4] [µM] | further results |
| --- | --- | --- | --- |
| Nc1ncnc2c1ncn2[C@@H]1O[C@H](COP(=O)(O)OP(=O)(O)OP(=O)(O)O)[C@@H](O)[C@H]1O [ATP] | 33 ± 4 | – | KD for nucleotide ligands on H-NS ([2]; H-NS 10 µM, 25 °C, 50 mM MOPS pH 7.5, excitation 280 nm, ΔF(area) 322-336 nm): does not show a saturation curve; also recorded: did not show a saturation curve |
| Nc1nc2c(ncn2[C@@H]2O[C@H](COP(=O)(O)OP(=O)(O)O)[C@@H](O)[C@H]2O)c(=O)[nH]1 [GDP] | 62 ± 4 | 72 ± 6 | – |
| Nc1nc2c(ncn2[C@@H]2O[C@H](COP(=O)(O)OP(=O)(O)OP(=O)(O)O)[C@@H](O)[C@H]2O)c(=O)[nH]1 [GTP] | 35 ± 3 | 120 ± 25 | – |
| Nc1ncnc2c1ncn2[C@@H]1O[C@@H]2COP(=O)(O)O[C@H]2[C@H]1O [cAMP] | – | – | Kd [2]: 270 ± 40 µM |
| Nc1nc2c(ncn2[C@@H]2O[C@@H]3COP(=O)(O)O[C@H]3[C@H]2O)c(=O)[nH]1 [cGMP] | 17 ± 1 | – | – |
| B1 | – | – | stoichiometry N [3]: 2 |
